Assay results: patent US12660819B2, “Herbicidal derivatives” (SYNGENTA CROP PROTECTION AG, priority 2020, dated 2026)

Key:
Type in all cases: in vivo
Setaria faberi (SETFA) [1] = experiment: Post-emergence Test (glasshouse, percentage damage to the plant); details: 1000 g/ha unless otherwise stated, evaluated after 13 days; for Post-emergence Test SETFA, percentage damage to the plant (five-point scale): post-emergence spray; for SETFA, percentage damage caused to the plant (five-point scale): post-emergence
In short: (§1)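 Percentage damage to the plant, assessed 13 days after application and scored 1–5 in 20% bands. Pots sown in standard soil received compound at 1000 g/ha unless otherwise stated, sprayed under 24/16 °C, 14 h light, 65% humidity.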

[2] = tested on: Ipomoea hederacea (IPOHE); experiment: as above; details: 1000 g/ha unless otherwise stated, evaluated after 13 days; for Post-emergence Test IPOHE, percentage damage to the plant (five-point scale): post-emergence spray; for IPOHE, percentage damage caused to the plant (five-point scale): post-emergence
In short: as §1

[3] = tested on: Amaranthus retoflexus (AMARE); experiment: as above; details: 1000 g/ha unless otherwise stated, evaluated after 13 days; for Post-emergence Test AMARE, percentage damage to the plant (five-point scale): post-emergence spray; for AMARE, percentage damage caused to the plant (five-point scale): post-emergence
In short: (§2)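 Scored 13 days after spraying as percentage plant damage in five bands (5=81–100%, 4=61–80%, 3=41–60%, 2=21–40%, 1=0–20%). Spray at 1000 g/ha unless stated, in acetone/water 50:50 plus 0.5% Tween 20, onto sown glasshouse pots (24/16 °C, 14 h light, 65% humidity).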

Solanum nigrum (SOLNI) [4] = experiment: as above; details: post-emergence spray, 1000 g/ha unless otherwise stated, evaluated after 13 days
In short: as §2

Lolium perenne (LOLPE) [5] = experiment: as above; details: post-emergence spray, 1000 g/ha unless otherwise stated, evaluated after 13 days
In short: as §2

[6] = tested on: Echinochloa crus-galli (ECHCG); experiment: as above; details: 1000 g/ha unless otherwise stated, evaluated after 13 days; for Post-emergence Test ECHCG, percentage damage to the plant (five-point scale): post-emergence spray; for ECHCG, percentage damage caused to the plant (five-point scale): post-emergence
In short: as §2

Setaria faberi (SETFA) [7] = experiment: Pre-emergence Test (glasshouse, percentage damage to the plant); details: 1000 g/ha unless otherwise stated; for percentage damage to the plant, SETFA: five-point scale; for percentage damage to the plant, SETFA (five-point scale): Setaria faberi
[8] = tested on: Echinochloa crus-galli (ECHCG); experiment: as above; details: 1000 g/ha unless otherwise stated; for percentage damage to the plant, ECHCG: five-point scale; for percentage damage to the plant, ECHCG (five-point scale): Echinochloa crus-galli
[9] = tested on: Ipomoea hederacea (IPOHE); experiment: as above; details: 1000 g/ha unless otherwise stated; for percentage damage to the plant, IPOHE: five-point scale; for percentage damage to the plant, IPOHE (five-point scale): Ipomoea hederacea
[10] = tested on: Amaranthus retoflexus (AMARE); experiment: as above; details: 1000 g/ha unless otherwise stated; for percentage damage to the plant, AMARE: five-point scale; for percentage damage to the plant, AMARE (five-point scale): Amaranthus retoflexus
Lolium perenne (LOLPE) [11] = experiment: as above; details: 1000 g/ha unless otherwise stated, five-point scale
Solanum nigrum (SOLNI) [12] = experiment: as above; details: 1000 g/ha unless otherwise stated, five-point scale
Zea mays (ZEAMX) [13] = experiment: Post-emergence Test (glasshouse, percentage damage to the plant); details: post-emergence; 1000 g/ha unless otherwise stated; evaluated after 13 days
In short: as §1

[14] = tested on: Amaranthus palmeri (AMAPA); experiment: as above; details: post-emergence; 1000 g/ha unless otherwise stated; evaluated after 13 days
In short: as §2

Zea mays (ZEAMX) [15] = experiment: Pre-emergence Test (glasshouse, percentage damage to the plant); details: 1000 g/ha unless otherwise stated, Zea mays
[16] = tested on: Amaranthus palmeri (AMAPA); experiment: as above; details: 1000 g/ha unless otherwise stated, Amaranthus palmeri

Row | Compound | Post-emergence Test SETFA, percentage damage to the plant (five-point scale) (Setaria faberi (SETFA) [1]) | Post-emergence Test IPOHE, percentage damage to the plant (five-point scale) [2] | Post-emergence Test AMARE, percentage damage to the plant (five-point scale) [3] | Post-emergence Test SOLNI, percentage damage to the plant (five-point scale) (Solanum nigrum (SOLNI) [4]) | Post-emergence Test LOLPE, percentage damage to the plant (five-point scale) (Lolium perenne (LOLPE) [5]) | Post-emergence Test ECHCG, percentage damage to the plant (five-point scale) [6] | percentage damage to the plant, SETFA (Setaria faberi (SETFA) [7]) | percentage damage to the plant, ECHCG [8] | percentage damage to the plant, IPOHE [9] | percentage damage to the plant, AMARE [10] | percentage damage to the plant, LOLPE (Lolium perenne (LOLPE) [11]) | SETFA, percentage damage caused to the plant (five-point scale) (Setaria faberi (SETFA) [1]) | IPOHE, percentage damage caused to the plant (five-point scale) [2] | ZEAMX, percentage damage caused to the plant (five-point scale) (Zea mays (ZEAMX) [13]) | AMARE, percentage damage caused to the plant (five-point scale) [3] | AMAPA, percentage damage caused to the plant (five-point scale) [14] | ECHCG, percentage damage caused to the plant (five-point scale) [6] | percentage damage to the plant, SETFA (five-point scale) (Setaria faberi (SETFA) [7]) | percentage damage to the plant, ECHCG (five-point scale) [8] | percentage damage to the plant, IPOHE (five-point scale) [9] | also measured
1 | CCn1c(C)c(-c2cnn(C)c2)c(=O)c(C(=O)O)c1-c1ccc(Cl)c(Cl)c1 [Compound 1, 2-(3,4-dichlorophenyl)-1-ethyl-6-methyl-5-(1-methylpyrazol-4-yl)-4-oxo-pyridine-3-carboxylic acid] | 5 (5=81-100%) | 4 (4=61-80%) | 5 (5=81-100%) | 5 (5=81-100%) | 3 (3=41-60%) | 5 (5=81-100%) | 5 (5=81-100%) | 5 (5=81-100%) | 4 (4=61-80%) | 1 (1=0-20%) | 4 (4=61-80%) |  |  |  |  |  |  |  |  |  | percentage damage to the plant, SOLNI (Solanum nigrum (SOLNI) [12]): 5 (5=81-100%)
2 | CCn1c(C)c(-c2ccc(Cl)cc2)c(=O)c(C(=O)NN(C)C)c1-c1ccc(Cl)c(Cl)c1 [Compound 2, 5-(4-chlorophenyl)-2-(3,4-dichlorophenyl)-1-ethyl-N′,N′,6-trimethyl-4-oxo-pyridine-3-carbohydrazide] | 4 (4=61-80%) | 2 (2=21-40%) | 3 (3=41-60%) |  | 1 (1=0-20%) | 2 (2=21-40%) | 1 (1=0-20%) | 1 (1=0-20%) |  | 3 (3=41-60%) | 1 (1=0-20%) |  |  |  |  |  |  |  |  |  | 
3 | CCn1c(C)c(-c2ccc(F)cc2F)c(=O)c(C(=O)O)c1-c1ccc(Cl)c(Cl)c1 [Compound 3, 2-(3,4-dichlorophenyl)-5-(2,4-difluorophenyl)-1-ethyl-6-methyl-4-oxo-pyridine-3-carboxylic acid] | 5 (5=81-100%) | 4 (4=61-80%) | 5 (5=81-100%) |  | 4 (4=61-80%) | 5 (5=81-100%) | 5 (5=81-100%) | 4 (4=61-80%) | 4 (4=61-80%) | 5 (5=81-100%) | 3 (3=41-60%) |  |  |  |  |  |  |  |  |  | 
4 | CCn1c(C)c(-c2ccc(F)cc2F)c(=O)c(C(=O)O)c1-c1ccc(-c2ccc(F)cc2F)c(Cl)c1 [Compound 4, 2-[3-chloro-4-(2,4-difluorophenyl)phenyl]-5-(2,4-difluorophenyl)-1-ethyl-6-methyl-4-oxo-pyridine-3-carboxylic acid] | 2 (2=21-40%) | 2 (2=21-40%) | 3 (3=41-60%) |  | 1 (1=0-20%) | 1 (1=0-20%) | 1 (1=0-20%) | 1 (1=0-20%) | 1 (1=0-20%) | 1 (1=0-20%) | 1 (1=0-20%) |  |  |  |  |  |  |  |  |  | 
5 | CCn1c(COC)c(-c2ccc(Cl)cc2)c(=O)c(C(=O)O)c1-c1ccc(Cl)c(Cl)c1 [Compound 7, 5-(4-chlorophenyl)-2-(3,4-dichlorophenyl)-1-ethyl-6-(methoxymethyl)-4-oxo-pyridine-3-carboxylic acid] | 4 (4=61-80%) | 2 (2=21-40%) | 5 (5=81-100%) | 2 (2=21-40%) | 1 (1=0-20%) | 4 (4=61-80%) | 2 (2=21-40%) | 2 (2=21-40%) | 1 (1=0-20%) |  | 1 (1=0-20%) |  |  |  |  |  |  |  |  |  | percentage damage to the plant, SOLNI (Solanum nigrum (SOLNI) [12]): 1 (1=0-20%)
6 | CCn1c(C)c(-c2ccc(Cl)nc2)c(=O)c(C(=O)O)c1-c1ccc(Cl)c(Cl)c1 [Compound 12, 5-(6-chloro-3-pyridyl)-2-(3,4-dichlorophenyl)-1-ethyl-6-methyl-4-oxo-pyridine-3-carboxylic acid] | 5 (5=81-100%) | 4 (4=61-80%) | 5 (5=81-100%) |  | 3 (3=41-60%) | 4 (4=61-80%) | 5 (5=81-100%) | 4 (4=61-80%) | 1 (1=0-20%) | 5 (5=81-100%) | 1 (1=0-20%) |  |  |  |  |  |  |  |  |  | 
7 | CCn1c(C)c(-c2cccnc2)c(=O)c(C(=O)O)c1-c1ccc(Cl)c(Cl)c1 [Compound 21, 2-(3,4-dichlorophenyl)-1-ethyl-6-methyl-4-oxo-5-pyridin-1-ium-3-yl-pyridine-3-carboxylic acid;2,2,2-trifluoroacetate] |  | 3 (3=41-60%) | 3 (3=41-60%) | 4 (4=61-80%) |  | 3 (3=41-60%) | 3 (3=41-60%) | 2 (2=21-40%) |  |  |  |  |  |  |  |  |  |  |  |  | 
8 | CCn1c(C)c(-c2cc(OC(C)C)c(Cl)cc2F)c(=O)c(C(=O)O)c1-c1ccc(F)c(F)c1 [Compound 260, 5-(4-chloro-2-fluoro-5-isopropoxy-phenyl)-2-(3,4-difluorophenyl)-1-ethyl-6-methyl-4-oxo-pyridine-3-carboxylic acid] |  |  |  |  |  |  |  |  |  |  |  | 4 (4=61-80%) | 3 (3=41-60%) | 3 (3=41-60%) | 4 (4=61-80%) | 4 (4=61-80%) | 4 (4=61-80%) | 4 (4=61-80%) | 5 (5=81-100%) | 3 (3=41-60%) | percentage damage to the plant, ZEAMX (five-point scale) (Zea mays (ZEAMX) [15]): 1 (1=0-20%); percentage damage to the plant, AMARE (five-point scale) [10]: 4 (4=61-80%); percentage damage to the plant, AMAPA (five-point scale) [16]: 4 (4=61-80%)
9 | CCn1c(C)c(-c2cc(OCCOC)c(Cl)cc2F)c(=O)c(C(=O)O)c1-c1ccc(F)c(F)c1 [Compound 261, 5-[4-chloro-2-fluoro-5-(2-methoxyethoxy)phenyl]-2-(3,4-difluorophenyl)-1-ethyl-6-methyl-4-oxo-pyridine-3-carboxylic acid] |  |  |  |  |  |  |  |  |  |  |  | 4 (4=61-80%) | 2 (2=21-40%) | 3 (3=41-60%) | 5 (5=81-100%) | 4 (4=61-80%) | 4 (4=61-80%) | 4 (4=61-80%) | 4 (4=61-80%) | 4 (4=61-80%) | percentage damage to the plant, ZEAMX (five-point scale) (Zea mays (ZEAMX) [15]): 1 (1=0-20%); percentage damage to the plant, AMARE (five-point scale) [10]: 4 (4=61-80%); percentage damage to the plant, AMAPA (five-point scale) [16]: 5 (5=81-100%)
10 | CCn1c(C)c(-c2cc(OCC3CC3)c(Cl)cc2F)c(=O)c(C(=O)O)c1-c1ccc(F)c(F)c1 [Compound 262, 5-[4-chloro-5-(cyclopropylmethoxy)-2-fluoro-phenyl]-2-(3,4-difluorophenyl)-1-ethyl-6-methyl-4-oxo-pyridine-3-carboxylic acid] |  |  |  |  |  |  |  |  |  |  |  | 5 (5=81-100%) | 2 (2=21-40%) | 4 (4=61-80%) | 5 (5=81-100%) | 5 (5=81-100%) | 4 (4=61-80%) | 5 (5=81-100%) | 5 (5=81-100%) | 3 (3=41-60%) | percentage damage to the plant, ZEAMX (five-point scale) (Zea mays (ZEAMX) [15]): 2 (2=21-40%); percentage damage to the plant, AMARE (five-point scale) [10]: 5 (5=81-100%); percentage damage to the plant, AMAPA (five-point scale) [16]: 5 (5=81-100%)
